Results published in the NIST ThermoML archive (doi:10.1021/je5010643).
± gives the expanded uncertainty stated by the source.

Experiment: xn = mol fraction of the nth substance listed
Conditions: 101.32 kPa, Liquid; for speed of sound: Frequency=3 MHz, Linear variable-path acoustic interferometer

CC(C)C(=O)O [2-methylpropanoic acid] + C1COCCO1
Conditions	mass density [kg/m3]	speed of sound [m/s]
295.15 K, x2 = 0	945.28 ± 1	1100.2 ± 1.6
295.15 K, x2 = 0.1	955.63 ± 0.96	1119.6 ± 1.6
295.15 K, x2 = 0.2	965.46 ± 0.9	1140 ± 1.6
295.15 K, x2 = 0.3	975.08 ± 0.85	1161.7 ± 1.6
295.15 K, x2 = 0.4	984.2 ± 0.79	1184.5 ± 1.7
295.15 K, x2 = 0.5	993.05 ± 0.74	1208.8 ± 1.7
295.15 K, x2 = 0.6	1001.52 ± 0.71	1234.7 ± 1.7
295.15 K, x2 = 0.7	1009.56 ± 0.76	1262.3 ± 1.7
295.15 K, x2 = 0.8	1017.23 ± 0.81	1291.8 ± 1.7
295.15 K, x2 = 0.9	1024.38 ± 0.86	1323.6 ± 1.8
298.15 K, x2 = 0	942.22 ± 1	1086 ± 1.6
298.15 K, x2 = 0.1	952.65 ± 0.98	1105.4 ± 1.6
298.15 K, x2 = 0.2	962.63 ± 0.92	1125.9 ± 1.6
298.15 K, x2 = 0.3	972.12 ± 0.86	1147.5 ± 1.6
298.15 K, x2 = 0.4	981.18 ± 0.81	1170.5 ± 1.7
298.15 K, x2 = 0.5	989.97 ± 0.76	1194.9 ± 1.7
298.15 K, x2 = 0.6	998.46 ± 0.71	1220.8 ± 1.7
298.15 K, x2 = 0.7	1006.5 ± 0.74	1248.6 ± 1.7
298.15 K, x2 = 0.8	1014.12 ± 0.79	1278.3 ± 1.7
298.15 K, x2 = 0.9	1021.3 ± 0.84	1310.3 ± 1.8
301.15 K, x2 = 0	939.16 ± 1.1	1072.1 ± 1.6
301.15 K, x2 = 0.1	949.87 ± 0.99	1091.5 ± 1.6
301.15 K, x2 = 0.2	959.66 ± 0.94	1111.9 ± 1.6
301.15 K, x2 = 0.3	969.21 ± 0.88	1133.6 ± 1.6
301.15 K, x2 = 0.4	978.18 ± 0.83	1156.6 ± 1.6
301.15 K, x2 = 0.5	986.93 ± 0.78	1181.1 ± 1.7
301.15 K, x2 = 0.6	995.31 ± 0.73	1207.2 ± 1.7
301.15 K, x2 = 0.7	1003.43 ± 0.72	1235 ± 1.7
301.15 K, x2 = 0.8	1011.08 ± 0.77	1264.9 ± 1.7
301.15 K, x2 = 0.9	1018.24 ± 0.82	1297.1 ± 1.8
304.15 K, x2 = 0	936.1 ± 1.1	1058.2 ± 1.6
304.15 K, x2 = 0.1	946.87 ± 1	1077.6 ± 1.6
304.15 K, x2 = 0.2	956.7 ± 0.95	1098 ± 1.6
304.15 K, x2 = 0.3	966.21 ± 0.9	1119.7 ± 1.6
304.15 K, x2 = 0.4	975.19 ± 0.84	1142.8 ± 1.6
304.15 K, x2 = 0.5	983.97 ± 0.79	1167.3 ± 1.7
304.15 K, x2 = 0.6	992.36 ± 0.74	1193.4 ± 1.7
304.15 K, x2 = 0.7	1000.47 ± 0.7	1221.5 ± 1.7
304.15 K, x2 = 0.8	1008.1 ± 0.75	1251.5 ± 1.7
304.15 K, x2 = 0.9	1015.19 ± 0.8	1283.9 ± 1.7
307.15 K, x2 = 0	933.04 ± 1.1	1043.4 ± 1.6
307.15 K, x2 = 0.1	943.94 ± 1	1062.8 ± 1.6
307.15 K, x2 = 0.2	953.7 ± 0.97	1083.4 ± 1.6
307.15 K, x2 = 0.3	963.19 ± 0.91	1105.1 ± 1.6
307.15 K, x2 = 0.4	972.14 ± 0.86	1128.3 ± 1.6
307.15 K, x2 = 0.5	981.02 ± 0.81	1152.9 ± 1.6
307.15 K, x2 = 0.6	989.41 ± 0.76	1179.3 ± 1.7
307.15 K, x2 = 0.7	997.53 ± 0.71	1207.5 ± 1.7
307.15 K, x2 = 0.8	1005.12 ± 0.73	1237.9 ± 1.7
307.15 K, x2 = 0.9	1011.87 ± 0.78	1270.7 ± 1.7
310.15 K, x2 = 0	929.98 ± 1.1	1030.8 ± 1.6
310.15 K, x2 = 0.1	941.03 ± 1.1	1050.1 ± 1.6
310.15 K, x2 = 0.2	950.89 ± 0.99	1070.6 ± 1.6
310.15 K, x2 = 0.3	960.24 ± 0.93	1092.3 ± 1.6
310.15 K, x2 = 0.4	969.24 ± 0.88	1115.4 ± 1.6
310.15 K, x2 = 0.5	978.07 ± 0.83	1139.9 ± 1.6
310.15 K, x2 = 0.6	986.45 ± 0.78	1166.3 ± 1.7
310.15 K, x2 = 0.7	994.54 ± 0.73	1194.5 ± 1.7
310.15 K, x2 = 0.8	1002.1 ± 0.71	1224.9 ± 1.7
310.15 K, x2 = 0.9	1008.86 ± 0.76	1257.7 ± 1.7
313.15 K, x2 = 0	926.92 ± 1.1	1015.2 ± 1.6
313.15 K, x2 = 0.1	938.11 ± 1.1	1034.6 ± 1.6
313.15 K, x2 = 0.2	947.93 ± 1	1055.1 ± 1.6
313.15 K, x2 = 0.3	957.22 ± 0.95	1076.9 ± 1.6
313.15 K, x2 = 0.4	966.21 ± 0.9	1100.2 ± 1.6
313.15 K, x2 = 0.5	975.03 ± 0.84	1125 ± 1.6
313.15 K, x2 = 0.6	983.45 ± 0.8	1151.6 ± 1.6
313.15 K, x2 = 0.7	991.62 ± 0.75	1180.1 ± 1.7
313.15 K, x2 = 0.8	999.14 ± 0.7	1210.9 ± 1.7
313.15 K, x2 = 0.9	1005.92 ± 0.74	1244.2 ± 1.7
